Assay results: the NIST ThermoML archive (doi:10.1016/j.jct.2009.10.002)

How the values were obtained:
[1] = mn = molality of the nth substance listed, in mol/kg; settings: 298.15 K, 101 kPa, Liquid, Vibrating tube method
[2] = 298.15 K; 101.33 kPa; Liquid; Vibrating tube method

CC(=O)Nc1ccccc1C(=O)O [2-acetamidobenzoic acid] + CCCCCCCCO
[1]
Settings	mass density [kg/m3]
m1 = 0.004871	822.31
m1 = 0.008993	822.47
m1 = 0.01189	822.58
m1 = 0.01818	822.82
m1 = 0.02358	823.02
m1 = 0.03392	823.42
m1 = 0.05837	824.35
m1 = 0.0873	825.4
m1 = 0.1273	826.83
m1 = 0.1682	828.43

NC(=O)c1ccccc1O [2-hydroxybenzamide] + CCCCCCCCO
[1]
Settings	mass density [kg/m3]
m1 = 0.002458	822.19
m1 = 0.003905	822.23
m1 = 0.0061	822.31
m1 = 0.007816	822.37
m1 = 0.01182	822.51
m1 = 0.02311	822.87
m1 = 0.03084	823.13
m1 = 0.03859	823.39
m1 = 0.05387	823.86
m1 = 0.08947	825.16

CC(=O)Nc1cccc(C(=O)O)c1 [3-(acetylamino)benzoic acid] + CCCCCCCCO
[1]
Settings	mass density [kg/m3]
m1 = 0.000244	822.13
m1 = 0.000488	822.14
m1 = 0.000973	822.17
m1 = 0.001081	822.17
m1 = 0.001283	822.18
m1 = 0.001361	822.19
m1 = 0.001375	822.19
m1 = 0.001452	822.19
m1 = 0.001582	822.2
m1 = 0.002358	822.23
m1 = 0.003857	822.28
m1 = 0.006025	822.36
m1 = 0.007586	822.43
m1 = 0.009397	822.51
m1 = 0.0109	822.57
m1 = 0.01161	822.6
m1 = 0.01355	822.68
m1 = 0.01453	822.72

CC(=O)Nc1cccc(O)c1 [3-acetamidophenol] + CCCCCCCCO
[1]
Settings	mass density [kg/m3]
m1 = 0.002796	822.21
m1 = 0.006909	822.37
m1 = 0.008394	822.43
m1 = 0.01356	822.62
m1 = 0.02056	822.89
m1 = 0.04126	823.67
m1 = 0.08892	825.48
m1 = 0.1451	827.61
m1 = 0.1875	829.24
m1 = 0.2708	832.45

NC(=O)c1cccc(O)c1 [3-hydroxy-benzamide] + CCCCCCCCO
[1]
Settings	mass density [kg/m3]
m1 = 0.001492	822.16
m1 = 0.002531	822.2
m1 = 0.003737	822.25
m1 = 0.006435	822.38
m1 = 0.007522	822.43
m1 = 0.01163	822.62
m1 = 0.02156	823.03
m1 = 0.03239	823.51
m1 = 0.04091	823.88
m1 = 0.05285	824.43
m1 = 0.07208	825.26
m1 = 0.08749	825.95

CC(=O)Nc1ccc(C(=O)O)cc1 [4-acetamidobenzoic acid] + CCCCCCCCO
[1]
Settings	mass density [kg/m3]
m1 = 0.000708	822.14
m1 = 0.00077	822.15
m1 = 0.000914	822.16
m1 = 0.001192	822.17
m1 = 0.001367	822.18
m1 = 0.002266	822.23
m1 = 0.002865	822.26
m1 = 0.002919	822.26
m1 = 0.003657	822.3
m1 = 0.005744	822.42
m1 = 0.01212	822.76
m1 = 0.01816	823.12
m1 = 0.02407	823.47
m1 = 0.0284	823.73
m1 = 0.03621	824.17

NC(=O)c1ccc(O)cc1 [4-hydroxybenzamide] + CCCCCCCCO
[1]
Settings	mass density [kg/m3]
m1 = 0.002127	822.18
m1 = 0.005332	822.31
m1 = 0.005725	822.34
m1 = 0.007571	822.43
m1 = 0.01115	822.59
m1 = 0.01722	822.85
m1 = 0.02131	822.99
m1 = 0.02267	823.06
m1 = 0.02734	823.25
m1 = 0.02874	823.32
m1 = 0.038	823.71
m1 = 0.05733	824.52
m1 = 0.0819	825.53
m1 = 0.09825	826.23
m1 = 0.1209	827.18
m1 = 0.1408	828.01
m1 = 0.1856	829.93

CC(=O)Nc1ccccc1O [N-(2-hydroxyphenyl)ethanamide] + CCCCCCCCO
[1]
Settings	mass density [kg/m3]
m1 = 0.001728	822.19
m1 = 0.002758	822.23
m1 = 0.003165	822.24
m1 = 0.003211	822.24
m1 = 0.004195	822.28
m1 = 0.005164	822.31
m1 = 0.006563	822.36
m1 = 0.01154	822.56
m1 = 0.0164	822.75
m1 = 0.01909	822.86
m1 = 0.02399	823.06
m1 = 0.03356	823.46

CCOc1ccc(NC(C)=O)cc1 [N-(4-ethoxyphenyl)ethanamide] + CCCCCCCCO
[1]
Settings	mass density [kg/m3]
m1 = 0.00971	822.4
m1 = 0.01263	822.48
m1 = 0.01969	822.67
m1 = 0.0229	822.75
m1 = 0.02432	822.79
m1 = 0.02706	822.86
m1 = 0.03645	823.12
m1 = 0.04962	823.48
m1 = 0.06288	823.85
m1 = 0.08214	824.37
m1 = 0.105	824.98
m1 = 0.1351	825.83
m1 = 0.1591	826.63

CC(=O)Nc1ccc(O)cc1 [N-acetyl-p-aminophenol] + CCCCCCCCO
[1]
Settings	mass density [kg/m3]
m1 = 0.006684	822.49
m1 = 0.009351	822.61
m1 = 0.01261	822.76
m1 = 0.0141	822.83
m1 = 0.01601	822.91
m1 = 0.01873	823.05
m1 = 0.02173	823.19
m1 = 0.02486	823.33
m1 = 0.03075	823.59
m1 = 0.03578	823.8
m1 = 0.04077	824.01
m1 = 0.04581	824.23
m1 = 0.05103	824.46
m1 = 0.05889	824.81
m1 = 0.06631	825.1
m1 = 0.07665	825.5
m1 = 0.08633	825.93
m1 = 0.1379	828.16

CC(=O)Nc1ccccc1 [N-phenylethanamide] + CCCCCCCCO
[1]
Settings	mass density [kg/m3]
m1 = 0.002139	822.18
m1 = 0.00565	822.29
m1 = 0.01113	822.46
m1 = 0.01413	822.55
m1 = 0.02434	822.84
m1 = 0.02629	822.9
m1 = 0.05259	823.67
m1 = 0.08132	824.49
m1 = 0.1056	825.18
m1 = 0.1482	826.35
m1 = 0.1847	827.37
m1 = 0.2858	830.1
m1 = 0.3663	832.25

NC(=O)c1ccccc1 [benzamide] + CCCCCCCCO
[1]
Settings	mass density [kg/m3]
m1 = 0.004751	822.25
m1 = 0.009145	822.4
m1 = 0.01194	822.49
m1 = 0.01802	822.68
m1 = 0.02473	822.9
m1 = 0.03952	823.38
m1 = 0.07569	824.52
m1 = 0.108	825.55
m1 = 0.1331	826.37
m1 = 0.179	827.87

O=C(O)c1ccccc1 [benzoic acid] + CCCCCCCCO
[1]
Settings	mass density [kg/m3]
m1 = 0.002452	822.18
m1 = 0.005198	822.27
m1 = 0.01254	822.53
m1 = 0.01324	822.55
m1 = 0.03589	823.34
m1 = 0.06692	824.43
m1 = 0.198	828.84
m1 = 0.3209	832.91
m1 = 0.4227	836.12
m1 = 0.5096	838.89

CCCCCCCCO [octan-1-ol]
Settings	mass density [kg/m3]
[2]	822.11

Oc1ccccc1 [phenol] + CCCCCCCCO
[1]
Settings	mass density [kg/m3]
m1 = 0.01293	822.32
m1 = 0.0235	822.59
m1 = 0.03299	822.87
m1 = 0.04712	823.32
m1 = 0.06563	823.78
m1 = 0.1179	825.01
m1 = 0.2355	827.82
m1 = 0.2692	828.62
m1 = 0.3564	831.14
m1 = 0.4787	834.18
